Values of other authors in publication PMC12305721 (International Journal of Pharmaceutics: X, 2025).

Set-up: method as in Song et al., 2016
Settings: reduced from −43.19 °C; ref Song et al., 2016

Tg of PSAs after incorporation of Azone: −52.92 °C
Compound: CCCCCCCCCCCCN1CCCCCC1=O [Azone]
